pIC50: −log10 of the molar value. “And” between values parts separate entries of the source, which are not always exact repeats. Equal values may be shown once.
How the values were obtained:
22Rv1-CDK7-D97N cells = test: Growth assay (SRB), 22Rv1 CDK7-D97N knock-in pool; format: cell-based, human; settings: for % Growth: 22Rv1 CDK7 D99N
Summary of the method: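 CRISPR-Cas9 knock-in lines were treated with increasing drug concentrations two days after seeding, then grown 4 days. Cell number by SRB staining; IC50 from non-linear regression.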

22Rv1-SamR cells = test: IncuCyte confluency growth, 22Rv1-SamR; format: cell-based, human; settings: 22Rv1-SamR; for % Confluency: 1.25µM Samuraciclib
Method: (§1) To determine the IC50 of drug treatments on growth, cells were seeded in 96-well culture plates. Two days after seeding, the cells were treated with increasing concentrations of drugs and incubated for 4 days. Cell number was determined using the SRB assay (Skehan et al, [1990]), and IC50 values were calculated using non-linear regression curve fitting in GraphPad Prism v10. For all other growth experiments, cells were seeded into 96-well plates, and appropriate drugs were added 2 days after seeding. Cells were then incubated in an IncuCyte Zoom live-cell imager, with cell confluency measured every 6 h. Cell doubling times were determined by non-linear curve fitting (exponential growth equation) in GraphPad Prism v10.

[1] = test system: 22Rv1 homozygous CDK7-D97N CL3 cells; test: IncuCyte confluency growth, 22Rv1 homozygous CDK7-D97N CL3; format: cell-based, human; settings: for % Confluency: 1.25µM Samuraciclib
Method: as §1

MCF7 cells = test: Growth assay (SRB), MCF7; format: cell-based, human; settings: for % Growth: biological reps
Summary of the method: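 SRB: dosing at day 2 post-seed, rising concentrations, 4 d incubation, IC50 via non-linear fit. IncuCyte: drug at day 2, confluency read q6h, doubling time from exponential curve fit.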

22Rv1 cells = test: IncuCyte confluency growth, 22Rv1; format: cell-based, human; settings: 1.25µM Samuraciclib
Method: as §1

[2] = test system: 22Rv1 CDK7-D97N CL3 cells; test: Growth assay (SRB), 22Rv1 homozygous CDK7-D97N clone CL3; format: cell-based; settings: Homo sapiens; 22Rv1 CDK7-D97N complete knock-in clone CL3; Figure R1; read-out: IC50, growth inhibition
Method: as §1
Alt-R^TM S.p. Cas9 nuclease V3, Alt-R CRISPR-Cas9 crRNA, TracrRNA and the donor templates were obtained from Integrated DNA Technologies. […] Cells were treated with 0.7 µM of Alt-R HDR Enhancer V2 to improve HRD efficiency. Sequences of the CRISPRs in the crRNA and the donor templates are shown in the Reagents and tools table. Donor templates were designed to include non-coding substitutions to aid genome DNA PCR for identifying knock-in events and to facilitate cloning; these substitutions are noted in the Reagents and tools table.

In the case of CC(C)c1cnn2c(NCc3ccccc3)cc(NC[C@H]3CCNC[C@@H]3O)nc12 [Samuraciclib], the “% Growth” value (22Rv1-CDK7-D97N cells; Log10 Conc. (nM) 0.09) was 103.62% and 100.26%, the “% Growth” value (22Rv1-CDK7-D97N cells; Log10 Conc. (nM) 0.69) was 96.79% and 106.77% and the “% Growth” value (22Rv1-CDK7-D97N cells; Log10 Conc. (nM) 1.29) was 92.08% and 60.59%. The “% Growth” value (22Rv1-CDK7-D97N cells; Log10 Conc. (nM) 2.49) was 84.95% and 72.47%, the “% Growth” value (22Rv1-CDK7-D97N cells; Log10 Conc. (nM) 3.10) was 51.70% and 37.63% and the “% Growth” value (22Rv1-CDK7-D97N cells; Log10 Conc. (nM) 3.70) was -6.42% and -11.54%. For the same compound, the “% Growth” value (22Rv1-CDK7-D97N cells; Log10 Conc. (nM) 4.30) was -14.17% and -16.82%, the “% Growth” value (22Rv1-CDK7-D97N cells; Log10 Conc. (nM) -0.52) was 92.49% and 114.16% and the pIC50 (22Rv1-CDK7-D97N cells; Homo sapiens, 22Rv1 CDK7 D97N CRISPR pool, Figure R1, read-out: IC50, growth inhibition) was 5.82. For the same compound, the “% Confluency” value (22Rv1-SamR cells; 0 hours) was 9.95% and 14.33% and 14.57%, the “% Confluency” value (22Rv1-SamR cells; 6 hours) was 10.40% and 16.13% and 16.29% and the “% Confluency” value (22Rv1-SamR cells; 12 hours) was 11.65% and 17.66% and 17.87%. For the same compound, the “% Confluency” value (22Rv1-SamR cells; 18 hours) was 12.68% and 19.79% and 20.05%, the “% Confluency” value (22Rv1-SamR cells; 24 hours) was 14.19% and 22.35% and 22.55% and the “% Confluency” value (22Rv1-SamR cells; 30 hours) was 15.61% and 24.60% and 24.68%. For the same compound, the “% Confluency” value (22Rv1-SamR cells; 36 hours) was 16.94% and 26.20% and 26.26%, the “% Confluency” value (22Rv1-SamR cells; 42 hours) was 17.81% and 27.46% and 27.71% and the “% Confluency” value (22Rv1-SamR cells; 48 hours) was 18.38% and 28.92% and 29.43%. The “% Confluency” value (22Rv1-SamR cells; 54 hours) was 19.67% and 30.91% and 31.32%, the “% Confluency” value (22Rv1-SamR cells; 60 hours) was 20.82% and 32.87% and 33.32% and the “% Confluency” value (22Rv1-SamR cells; 66 hours) was 22.29% and 34.64% and 35.33%. For the same compound, the “% Confluency” value (22Rv1-SamR cells; 72 hours) was 23.74% and 36.43% and 37.12%, the “% Confluency” value (22Rv1-SamR cells; 78 hours) was 25.50% and 38.39% and 39.15% and the “% Confluency” value (22Rv1-SamR cells; 84 hours) was 27.27% and 40.40% and 41.13%. For the same compound, the “% Confluency” value (22Rv1-SamR cells; 90 hours) was 29.10% and 42.68% and 43.52%, the “% Confluency” value (22Rv1-SamR cells; 96 hours) was 31.07% and 45.25% and 45.93% and the “% Confluency” value (22Rv1-SamR cells; 114 hours) was 38.05% and 53.22% and 54.00%. The “% Confluency” value (22Rv1-SamR cells; 120 hours) was 40.50% and 56.05% and 56.55%, the “% Confluency” value (22Rv1-SamR cells; 126 hours) was 43.34% and 58.82% and 59.09% and the “% Confluency” value (22Rv1-SamR cells; 132 hours) was 46.08% and 61.31% and 61.57%. The “% Confluency” value (22Rv1-SamR cells; 138 hours) was 48.67% and 63.52% and 63.85%, the “% Confluency” value (22Rv1-SamR cells; 144 hours) was 51.40% and 65.10% and 65.55% and the “Growth inhibition over time” value (22Rv1-SamR cells; IncuCyte confluency, samuraciclib at 1.35 µM) was “considerably less growth inhibited”. For the same compound, the “% Confluency” value ([1]; CDK7D97N CL3, 0 hours) was 11.15% and 16.69% and 15.87%, the “% Confluency” value ([1]; CDK7D97N CL3, 6 hours) was 12.67% and 19.64% and 18.89% and the “% Confluency” value ([1]; CDK7D97N CL3, 12 hours) was 14.00% and 21.38% and 20.49%. The “% Confluency” value ([1]; CDK7D97N CL3, 18 hours) was 14.90% and 23.74% and 22.71%, the “% Confluency” value ([1]; CDK7D97N CL3, 24 hours) was 16.23% and 26.69% and 25.53% and the “% Confluency” value ([1]; CDK7D97N CL3, 30 hours) was 17.78% and 29.17% and 27.88%. For the same compound, the “% Confluency” value ([1]; CDK7D97N CL3, 36 hours) was 18.86% and 30.89% and 29.55%, the “% Confluency” value ([1]; CDK7D97N CL3, 42 hours) was 19.43% and 32.04% and 30.87% and the “% Confluency” value ([1]; CDK7D97N CL3, 48 hours) was 20.15% and 33.30% and 32.45%. For the same compound, the “% Confluency” value ([1]; CDK7D97N CL3, 54 hours) was 21.35% and 35.23% and 34.41%, the “% Confluency” value ([1]; CDK7D97N CL3, 60 hours) was 22.64% and 37.22% and 36.36% and the “% Confluency” value ([1]; CDK7D97N CL3, 66 hours) was 23.89% and 39.05% and 38.37%. For the same compound, the “% Confluency” value ([1]; CDK7D97N CL3, 72 hours) was 25.25% and 40.82% and 40.29%, the “% Confluency” value ([1]; CDK7D97N CL3, 78 hours) was 26.70% and 42.56% and 42.42% and the “% Confluency” value ([1]; CDK7D97N CL3, 84 hours) was 28.04% and 44.37% and 44.58%. The “% Confluency” value ([1]; CDK7D97N CL3, 90 hours) was 29.44% and 46.55%, the “% Confluency” value ([1]; CDK7D97N CL3, 96 hours) was 30.80% and 48.80% and 48.76% and the “% Confluency” value ([1]; CDK7D97N CL3, 114 hours) was 35.00% and 54.89% and 54.85%. For the same compound, the “% Confluency” value ([1]; CDK7D97N CL3, 120 hours) was 36.47% and 56.68%, the “% Confluency” value ([1]; CDK7D97N CL3, 126 hours) was 38.04% and 58.51% and 58.53% and the “% Confluency” value ([1]; CDK7D97N CL3, 132 hours) was 39.56% and 60.46% and 60.48%. The “% Confluency” value ([1]; CDK7D97N CL3, 138 hours) was 41.00% and 62.13% and 62.12%, the “% Confluency” value ([1]; CDK7D97N CL3, 144 hours) was 42.51% and 63.49% and 63.85% and the “Growth inhibition over time” value ([1]; 22Rv1 homozygous CDK7-D97N clone, IncuCyte confluency, samuraciclib at 1.35 µM) was “considerably less growth inhibited”. The IC50 (MCF7 cells; Homo sapiens, 96 h, 4 days, SRB) was 12.1 nM, the “% Growth” value (MCF7 cells; Log10 Conc. (nM) 0.09, 4 days) was 94.81% and 93.76% and 96.34% and 97.66% and the “% Growth” value (MCF7 cells; Log10 Conc. (nM) 0.69, 4 days) was 67.73% and 59.93% and 79.41% and 74.71%. The “% Growth” value (MCF7 cells; Log10 Conc. (nM) 3.70, 4 days) was -10.28% and -8.18% and -0.52% and -0.67%, the “% Growth” value (MCF7 cells; Log10 Conc. (nM) 4.30, 4 days) was -14.83% and -14.97% and -6.89% and -6.39% and the “% Growth” value (MCF7 cells; Log10 Conc. (nM) -0.52, 4 days) was 94.36% and 98.21% and 94.31% and 95.03%. For the same compound, the “% Confluency” value (22Rv1 cells; 22Rv1, 0 hours) was 11.09% and 19.39% and 18.69%, the “% Confluency” value (22Rv1 cells; 22Rv1, 6 hours) was 11.39% and 20.88% and 20.07% and the “% Confluency” value (22Rv1 cells; 22Rv1, 12 hours) was 11.53% and 22.21% and 21.45%. For the same compound, the “% Confluency” value (22Rv1 cells; 22Rv1, 18 hours) was 12.38% and 23.96% and 23.27%, the “% Confluency” value (22Rv1 cells; 22Rv1, 24 hours) was 12.59% and 24.76% and 24.14% and the “% Confluency” value (22Rv1 cells; 22Rv1, 72 hours) was 18.17% and 36.04% and 35.50%. The “% Confluency” value (22Rv1 cells; 22Rv1, 78 hours) was 18.89% and 36.95% and 36.29%, the “% Confluency” value (22Rv1 cells; 22Rv1, 84 hours) was 19.31% and 37.65% and 37.05% and the “% Confluency” value (22Rv1 cells; 22Rv1, 90 hours) was 19.76% and 38.15% and 37.44%. The “% Confluency” value (22Rv1 cells; 22Rv1, 96 hours) was 20.21% and 38.65% and 37.90%, the “% Confluency” value (22Rv1 cells; 22Rv1, 114 hours) was 21.28% and 39.48% and 38.59% and the “% Confluency” value (22Rv1 cells; 22Rv1, 120 hours) was 21.53% and 39.86% and 38.66%. For the same compound, the “% Confluency” value (22Rv1 cells; 22Rv1, 126 hours) was 21.77% and 39.89% and 38.66%, the “% Confluency” value (22Rv1 cells; 22Rv1, 132 hours) was 21.94% and 40.00% and 38.90% and the “% Confluency” value (22Rv1 cells; 22Rv1, 138 hours) was 22.18% and 40.24% and 38.99%. For the same compound, the “% Confluency” value (22Rv1 cells; 22Rv1, 144 hours) was 22.26% and 40.34% and 39.26% and the pIC50 [2] was 5.85.

Source: PMC12528448, “Resistance to CDK7 inhibitors directed by acquired mutation of a conserved residue in cancer cells” (The EMBO Journal, 2025)
